The record followed here is US20240025845A1, “METASTASIS-INHIBITING COMPOSITION OF NOVEL METHYLSULFONAMIDE DERIVATIVE COMPOUND” (KOREA RESEARCH INSTITUTE OF BIOSCIENCE AND BIOTECHNOLOGY, priority 2020, published 2024).

In one data set the test system is MDA-MB-231 cells. Kind of data set: Wound healing assay (cancer cell movement). The data set is classed as cell-based, human. Here is the method:
(§1) In order to evaluate the cytotoxicity of the compound 1-1 according to the present invention, MTT assay was performed on a human breast cancer cell line (MDA-MB-231). Cells used in the experiment were all purchased from the American Type Culture Collection (ATCC). First, 1×10^5 MDA-MB-231 cells were divided into 200 vL of 5×10^3 cells in a 96-well plate using a DMEM medium added with 10% fetal bovine serum (FBS), […] and 50 U/ml penicillin while maintained at 37° C. under 5% CO2 air, and then incubated in a CO2 incubator for 24 hours. The purchased compound 1-1 of the present invention was treated at a concentration of 50 vM and incubated for 24 hours under the same culture conditions. After the incubation was completed, the culture medium was removed and 50 vL of 10 mg/mL MTT solution [3-(4,5-dimethylthiazol-2-yl)-2,5-diphenyltetrazolium bromide] (Sigma, St. Louis, MO, USA) was added per well and reacted at 37° C. for 4 hours. Subsequently, a supernatant was removed carefully so as to […] formazan crystals at the bottom, and 50 μL of dimethyl sulfoxide (DMSO) was added per well, and then shaken for 10 minutes, and an optical density (OD) at 590 nm was measured. […] The number of moved cells was quantified using an optical microscope (×100). […]

Data set [1] relates to human breast cancer cell line (MDA-MB-231). The experiment in a line: MTT cytotoxicity assay. The data set is classed as cell-based. Here is the method: as §1
For orientation: Tetrazolium assays rely on reduction of a dye to a coloured formazan, in cell work by metabolically active cells.

In another data set the test system is MDA-MB-231 cell lines. Kind of data set: transwell Matrigel invasion chamber assay. The data set is classed as cell-based, human. The settings on record: MDA-MB-231, 10 and 20 vM, 20 hours, compared to control group. Here is the method:
as §1

Data set [2] in a line: mouse liver metabolic stability assay. The data set is classed as in vitro ADME.
For another data set, the target named is T1, CSE1L (Homo sapiens, UniProt P55060).
T1 construct: endogenous in cells
T1 sequence (P55060 1-971): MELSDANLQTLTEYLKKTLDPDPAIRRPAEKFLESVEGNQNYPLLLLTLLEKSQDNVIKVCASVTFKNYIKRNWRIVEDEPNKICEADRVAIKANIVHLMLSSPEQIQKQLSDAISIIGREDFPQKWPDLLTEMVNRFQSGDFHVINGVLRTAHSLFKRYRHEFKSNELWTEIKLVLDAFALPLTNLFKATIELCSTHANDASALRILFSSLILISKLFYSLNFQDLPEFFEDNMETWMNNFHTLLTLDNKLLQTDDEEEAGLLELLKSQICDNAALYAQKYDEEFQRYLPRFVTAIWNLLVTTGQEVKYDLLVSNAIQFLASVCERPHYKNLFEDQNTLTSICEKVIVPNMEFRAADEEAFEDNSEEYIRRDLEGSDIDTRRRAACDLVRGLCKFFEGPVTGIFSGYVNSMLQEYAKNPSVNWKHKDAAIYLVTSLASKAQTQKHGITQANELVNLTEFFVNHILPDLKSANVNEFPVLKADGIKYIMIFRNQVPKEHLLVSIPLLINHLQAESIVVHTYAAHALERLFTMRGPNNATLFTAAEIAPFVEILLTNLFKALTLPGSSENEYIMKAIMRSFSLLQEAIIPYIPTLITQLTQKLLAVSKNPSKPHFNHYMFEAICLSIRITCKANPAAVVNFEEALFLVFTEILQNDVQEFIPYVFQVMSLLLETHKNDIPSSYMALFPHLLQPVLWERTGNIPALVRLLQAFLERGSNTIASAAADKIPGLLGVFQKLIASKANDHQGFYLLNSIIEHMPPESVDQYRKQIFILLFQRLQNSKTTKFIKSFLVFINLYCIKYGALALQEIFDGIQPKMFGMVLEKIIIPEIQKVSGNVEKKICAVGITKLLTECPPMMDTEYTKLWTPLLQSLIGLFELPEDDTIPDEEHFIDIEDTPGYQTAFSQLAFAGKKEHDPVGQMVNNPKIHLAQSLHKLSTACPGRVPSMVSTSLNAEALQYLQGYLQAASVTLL
Kind of data set: thermal shift assay (TSA) in cells, remaining CSE1L by Western blot. The data set is classed as binding. To be noted: cells treated 10 vM, 24 hours; 42-60° C. for 5 minutes; vs DMSO. The source says: A CSE1L protein was known as nuclear exportin 2, a type of nuclear exportin that played a role in moving importin-α from the intra-nucleus to the cytoplasm as a cargo protein of nuclear transport (Solsbacher, J.; Maurer, P.; Bischoff, F. R.; Schlenstedt, G. Mol. Cell. Biol. 1998, 18, 6805.). In general, importin-α and Ran-GTP, which were cargo proteins, bound to exportin CSE1L in the nucleus and transported to the cytoplasm through nuclear pores, and the obtained CSE1L-bound Ran-GTP protein was rapidly hydrolyzed to Ran GDP to have the form of a cargo free state (a state in which importin-ax was not bound). Through this series of processes, the protein played a role of substance transport. As another function, the CSE1L protein was particularly abundant in cancer cells or tissues, and reported to have roles and functions in metastasis, such as carcinogenesis, cancer cell movement, and cancer cell invasion, but since the exact mechanism has not been reported yet, it was intended to predict the interaction with a novel metastasis-targeting protein (CSE1L) and develop effective substances using molecular modeling tools. Based on a binding site of the previously identified fusarisetin compound and the target protein (CSE1L), a virtual search was conducted using about 1.5 million compound libraries (commercial focused libraries) to predict combinable compounds. […]
(Immunoblotting shows a protein as a band on a membrane.)

Another data set deals with cancer cells. Kind of data set: real-time cell movement with Holomonitor device. The data set is classed as cell-based.
Data set [3] has as its system mouse breast cancer cell line 4T1. The experiment in a line: orthotopic xenograft spontaneous metastasis mouse model (metastatic breast cancer). The data set is classed as in vivo. From the text:
In order to test a metastasis-inhibiting effect of the compound 1-1, which was a CSE1L inhibiting compound, in a mouse model, the metastasis-inhibiting effect was confirmed using an orthotopic xenograft spontaneous metastasis model. First, a method of examining metastasis of cancer formed by subcutaneous transplantation of mouse breast cancer cell line 4T1 (murine breast cancer cell) to other tissues was used. Female 6-week-old nude mice (BALB/c) were used. To make solid cancer, the mouse breast cancer cell line 4T1 (1×10^5 murine breast cancer cells) was transplanted into the 4th Mammary Fat Pad of the mouse, and from 5 days later, the compound 1-1 was treated at 10 mg/kg and 50 mg/kg every day for 3 weeks, respectively. […] In addition, after 25 days, the mice were autopsied to confirm the number of cancer cells metastasizing to the lung. […] Through the evaluation of anti-metastasis efficacy using the metastasis breast cancer model, the metastasis-inhibiting efficacy of the compound 1-1 was confirmed through selective regulation of the CSE1L function by binding to the target protein CSE1L. Accordingly, a novel derivative was synthesized in order to secure a substance showing better activity than these substances.

The test system of a further data set is angiogenesis. Kind of data set: chorioallantoic membrane (CAM) angiogenesis assay. The data set is classed as in vivo. The settings on record: fertilized egg, 4 μg. Here is the method:
In order to confirm whether angiogenesis was inhibited using the compound 1-46, which had high stability in vivo, among methylsulfonamide-based derivative compounds discovered as CSE1L inhibitors, a chorioallantoin membrane (CAM) was performed. First, the surface of the fertilized viable egg was wiped with 70% ethanol, incubated at 37° C. for 4 days, and 3 ml of albumin of the viable egg was extracted and then treated with the compound 1-46 at a concentration of 4 μg, and then it was observed whether angiogenesis was inhibited.

`CS(=O)(=O)N(CC(N)=O)c1ccc(C(Cl)(Cl)Cl)cc1` [Compound 1-1, 2-[N-methylsulfonyl-4-(trichloromethyl)anilino]acetamide]: the “cell movement of cancer cell line (wound healing)” value with MDA-MB-231 cells (MDA-MB-231, 10 and 20 μM, 24 hours, compared to control group) is reported as “significantly reduced”. Further, the “cytotoxicity (MTT)” value in data set [1] (MDA-MB-231, 50 vM, 24 hours) is “no cytotoxicity”. Further, in the data set on MDA-MB-231 cell lines, the “number of invaded cancer cells” value is recorded as “significantly reduced”. Moreover, the metabolic stability in data set [2] came to 89.8%. Further, the “amount of remaining CSE1L after heating (thermal stabilization)” value at CSE1L is “not reduced, but continuously maintained through structural stabilization”. Moreover, the “invasion and movement of cancer cells in real time” value in the data set on cancer cells was “inhibited the invasion and movement of cancer cells”. For the same molecule, the “change in body weight (toxicity)” value in data set [3] (10 mg/kg and 50 mg/kg every day for 3 weeks, compared to negative control group) is recorded as “no change in body weight”. The “formation of cancer tissue in other organs (metastasis, bioluminescence)” value in data set [3] (10 mg/kg and 50 mg/kg every day, vs control group) is given as “showed a tendency to inhibit the formation of cancer tissue in other organs”. Moreover, in data set [3] (10 mg/kg and 50 mg/kg, drug treatment period (16 to 24 days)), the “volume and capacity of the tumors” value is “not suppressed”. For the same molecule, the “number of cancer cells metastasizing to the lung” value in data set [3] (autopsy after 25 days, compared to control group) was “significantly reduced”.

As to `NC(=O)CN(c1ccc(C(F)(F)F)cc1)S(=O)(=O)CC(F)(F)F` [Compound 1-45], the metabolic stability in data set [2] stood at 82.2%.

`NC(=O)CN(c1ccc(C(F)(F)F)cc1)S(=O)(=O)CCC(F)(F)F` [Compound 1-46]: the “cell movement of cancer cell line (wound healing)” value in the data set with MDA-MB-231 cells (MDA-MB-231, compared to control group, concentration not given) is listed as “significantly reduced”. Also, in data set [1] (MDA-MB-231, 10 to 100 vM), the “cytotoxicity (MTT)” value was “no cytotoxicity”. Moreover, the “number of invaded cancer cells” value in the data set with MDA-MB-231 cell lines was “significantly reduced”. Besides, the metabolic stability in data set [2] is reported as 91.4%. Besides, the angiogenesis inhibitory activity result with angiogenesis is “excellent angiogenesis inhibitory activity”.
